“Also recorded” adds a separate entry of the source. Like-named read-outs stand apart in the source and are kept apart here. Positions of bridges follow the written chain, without caps; N, C: chain ends. No end group written: not given here. rhodamine = not defined here
Columns and labels:
[1] = system: PMNs; assay: Time-lapse intracellular Ca2+ imaging (Fura-2), with SOC/ARC blockers and iPLA2/PLA2 inhibitors; format: cell-based, human; details: for Ca2+ influx induced by CaM antagonists: 30 µM W7 or 1 µM CMZ
[2] = system: SOCs; design: method as in PMID 15280576, PMID 15951181, PMID 17003039; details: ref [42]–[44]; cited from earlier work
[3] = system: iPLA2; assay: iPLA2 activity assay (modified cPLA2 assay kit); format: biochemical, human; details: 20 µM CHR, 20 µM CAT, 1 µM CMZ or 50 µM W7, 30 min at 37°C; absorbance 405 nm per mg protein; two experiments in triplicate
Procedure: C) iPLA2 activity assay: Stimulation of iPLA2 activity after treatment by 20 µM CHR or 20 µM CAT for 30 min at 37°C and comparison with the effects of two CaM-binding factors (1 µM CMZ, 50 µM W7) and one iPLA2 inhibitor (25 µM BEL). Activity of iPLA2 is expressed as the absorbance (Abs/mg of protein) at λ405 nm.
PMNs (3.10^8) were collected, sonicated 3 times for 10 s with a 15 s break between cycles, and centrifuged at 15,000× g for 20 min at 4°C. The supernatant was removed and kept on ice. After determination of the protein concentration (Bradford assay), iPLA2 activity measurement was obtained in presence of different peptide concentrations using the cPLA2 assay kit, according to the modified method previously reported (cPLA2 assay kit, Caymen chemical), [36]. Results were from two similar experiments, each performed in triplicates.

[4] = system: human PMNs; assay: Flow cytometry, Ca2+ influx in Fluo-3-loaded PMNs; format: cell-based; details: for Ca2+ influx: human PMNs, Fluo-3, 20 µM peptide (or tryptic digest of 20 µM CAT/CHR), presence of extracellular Ca2+ (1 mM; 1.1 mM CaCl2 at t = 620 s), at least triplicates
[5] = system: PMNs; assay: HPLC and NanoLC-MS/MS proteomic analysis of PMN secretions induced by CHR and CAT; details: trypsin, protein threshold 1 peptide score > 52 or at least 2 peptides with score >20
[6] = system: pancreatic beta-cells; details: ref [2]; cited from earlier work
From the text: Chromogranin A (CgA) is a well-studied member of the chromogranin/secretogranin family, present in secretory cells of the nervous, endocrine and immune systems. CgA was the first chromogranin to be characterized as an acidic protein co-stored and co-released with the catecholamine hormones from the chromaffin cells of the adrenal medulla. […] Numerous endogenous cl ...

[7] = system: PMNs; assay: Confocal microscopy, uptake of rhodamine-labelled peptides into PMNs; format: cell-based, human; details: 20 µM rhodamine-labelled peptide, 2 min, PBS pH 7.4, room temperature, confocal microscopy after paraformaldehyde fixation
Procedure: PMNs (1.10^6/mL) were incubated 2 min at room temperature (RT) with rhodamine-labelled peptides (20 µM) in Phosphate Buffered Saline consisting of 10.5 mM KH2PO4, 30 mM Na2HPO4, 0.154 M NaCl, pH 7.4, washed and subsequently centrifuged by cytospins of 1–2.10^5 isolated PMNs onto glass slides (300 rpm, 10 min, RT). Cytospins were fixed with 4% (v/v) paraformaldehyde in PBS at RT for 20 min, then incubated with Draq-5 (dilution1∶500, Biostatus Limited., Leicestershire, UK) for 15 min. Stained cells were monitored with a Zeiss LSM 510 laser scanning microscope (Zeiss, Iena, Germany) equipped with a Planapo oil immersion objective (×63, numerical aperture 1.4).

[8] = system: calmodulin (CaM); assay: Surface Plasmon Resonance, CaM binding to immobilized peptides; details: pH 6.5
Procedure: Figure 5 Interaction of CHR and CAT with calmodulin (CaM). A) Fluorescence confocal microscopy of PMNs after incubation during 120 s with 20 µM rhodamine-labeled peptides (Rho-CHR or Rho-CAT). Control peptide: 20 µM rhodamine labeled Hippocampal Cholinergic Neurostimulating Peptide (Rho-HCNP). The PMNs nuclei were labeled with Draq-5. B) Alignment of the CHR and CAT sequences with two CaM binding motifs 1-8-14 B and 1-5-10. The alignment has been obtained manually so that hydrophobic residues occupy invariant positions shown with boldface letters. The net positive charge is also indicated. C) (1) Interactions between CaM, CAT and CHR by Surface Plasmon Resonance (SPR) Peptides were immobilized on a CM5 Biacore chip using amine-coupling chemistry. CaM (5 µM) was added at arrow and allowed to stabilize for 10 min. Dissociation by washing was recorded for the following 10 min. All measurements were performed at 20°C. The resulting sensorgrams were analyzed using BIAevaluation Software. (2) Calmodulin-Affinity Chromatography of CHR and CAT. The retained and eluted peptides were immunodetected by dot blot with anti-CHR (monoclonal anti-CgA47–68) and anti-CAT (polyclonal anti-CgA344–364). […]
Experiments were conducted on a Biacore 3000™ (GE Healthcare) and peptides were immobilized on a CM5 Biacore chip using amine-coupling. […] Sensorgrams were analyzed by using BIAevaluation Software.

## NCCOB(c1ccccc1)c1ccccc1 [2-APB, 2-aminoethyl diphenylborinate]
[1]
  inhibition of AA-induced Ca2+ influx: insensitive to 2-APB
  inhibition of CAT-induced Ca2+ entry: completely blocked the entry of extracellular Ca^2+; also recorded: inhibits completely the calcium entry; also recorded: abolished the transient Ca^2+ influx induced by CHR or CAT similarly to 2-APB
  inhibition of CHR-induced Ca2+ entry: completely blocked the entry of extracellular Ca^2+; also recorded: inhibits completely the calcium entry; also recorded: abolished the transient Ca^2+ influx induced by CHR or CAT similarly to 2-APB
  suppression of CMZ-induced Ca2+ influx: significantly suppressed
  suppression of W7-induced Ca2+ influx: significantly suppressed

## CCCCC/C=C\C/C=C\C/C=C\C/C=C\CCCC(=O)O [AA, Arachidonic Acid]
[1]; PMNs, Fura-2, 50 µM AA, 2.5 mM CaCl2
  Ca2+ influx induced by AA: calcium influx induced by 50 µM AA

## O=C1O/C(=C/Br)CCC1c1cccc2ccccc12 (stereo not shown) [BEL, Bromoenol lactone]
[1]; PMNs, Fura-2, 20 µM CAT, 2.5 mM CaCl2, 100 µM 2-APB (2 min), 25 µM BEL (30 min) or 10 µM BPB (10 min) before peptide
  inhibition of CAT-induced Ca2+ entry: abolished the transient Ca^2+ influx
[1]; PMNs, Fura-2, 20 µM CHR, 2.5 mM CaCl2, 100 µM 2-APB (2 min), 25 µM BEL (30 min) or 10 µM BPB (10 min) before peptide
  inhibition of CHR-induced Ca2+ entry: abolished the transient Ca^2+ influx
[1]; PMNs, Fura-2, 37°C, 1 µM CMZ, 25 µM BEL (30 min), 10 µM BPB (10 min) or 100 µM 2-APB (2 min) before
  suppression of CMZ-induced Ca2+ influx: significantly suppressed
[1]; PMNs, Fura-2, 37°C, 30 µM W7, 25 µM BEL (30 min), 10 µM BPB (10 min) or 100 µM 2-APB (2 min) before
  suppression of W7-induced Ca2+ influx: significantly suppressed

## Clc1ccc(C(c2ccc(Cl)cc2)n2cc[n+](CC(OCc3ccc(Cl)cc3Cl)c3ccc(Cl)cc3Cl)c2)cc1 (stereo not shown) [CMZ, calmidazolium]
[1]; PMNs, Fura-2, 37°C
  Ca2+ influx induced by CaM antagonists: induced longer lasting rises in influx
[2]
  direct activation of SOCs: may directly activate SOCs without the release of intracellular Ca^2+ stores
[3]
  stimulation of iPLA2 enzymatic activity in PMNs: stimulated

## [Cl][Gd]([Cl])[Cl] [Gd^3+, gadolinium chloride]
[1]
  inhibition of AA-induced Ca2+ influx: inhibited by gadolinium chloride (Gd^3+)

## NCCCCCCNS(=O)(=O)c1cccc2c(Cl)cccc12 [W7, N-(6-aminohexyl)-5-chloro-l-naphthalenesulfonamide]
[1]; PMNs, Fura-2, 37°C
  Ca2+ influx induced by CaM antagonists: induced longer lasting rises in influx
[3]
  stimulation of iPLA2 enzymatic activity in PMNs: stimulated

## ALQGAKERTHQQ [CgA65–76, the natural peptide CgA65–76 (…)]
[4]
  Ca2+ influx: failed to affect the Ca^2+ influx

## CIVEVISDTLSKPSPMPVSKEC (disulfide 1-22 (inferred)) [CgA17–40]
[4]
  Ca2+ influx: failed to affect the Ca^2+ influx

## Castestatin (SSMKLSFRARAYGFRGPGPQL; Catestatin; UniProt P10645 370-390, looked up)
[5]; sample Castestatin_1, Mascot
  Protein identified in PMN secretion (Protein name): Protein S100-A9 - Homo sapiens (Human); also recorded: Protein S100-A12 - Homo sapiens (Human)
[5]; sample Castestatin_6, Mascot
  Protein identified in PMN secretion (Protein name): Actin, cytoplasmic 1 - Homo sapiens (Human)
[5]; sample Castestatin_7, Mascot
  Protein identified in PMN secretion (Protein name): Actin, cytoplasmic 1 - Homo sapiens (Human)
[5]; sample Castestatin_8, Mascot
  Protein identified in PMN secretion (Protein name): Hemoglobin subunit alpha - Homo sapiens (Human)
[5]; sample Castestatin_9, Mascot
  Protein identified in PMN secretion (Protein name): Hemoglobin subunit beta - Homo sapiens (Human)
[5]; sample Castestatin_10, Mascot
  Protein identified in PMN secretion (Protein name): High mobility group protein B2 - Homo sapiens (Human); also recorded: Hemoglobin subunit beta - Homo sapiens (Human)
[5]; sample Castestatin_11, Mascot
  Protein identified in PMN secretion (Protein name): Heterogeneous nuclear ribonucleoproteins A2/B1 - Homo sapiens (Human); also recorded: Phosphatidylethanolamine-binding protein 1 - Homo sapiens (Human); also recorded: Heterogeneous nuclear ribonucleoprotein A1 - Homo sapiens (Human); also recorded: Filamin-A - Homo sapiens (Human); also recorded: Low affinity immunoglobulin gamma Fc region receptor III-B precursor - Homo sapiens (Human); also recorded: Alpha-1-acid glycoprotein 1 precursor - Homo sapiens (Human); also recorded: Haptoglobin precursor [Contains: Haptoglobin alpha chain; Haptoglobin beta chain] - Homo sapiens (Human); also recorded: SH3 domain-binding glutamic acid-rich-like protein - Homo sapiens (Human)

## NSPMNKGDTEVMK [CgA4–16, peptide derived from the N-terminal CgA domain (…)]
[4]
  Ca2+ influx: failed to affect the Ca^2+ influx

## Pancreastatin (AAPGWPEDGAGKMGAEEAKPPEGKGEWAHSRQEEEEMARAPQVLFRG; Pancreastatin; UniProt P05059 266-312, looked up) [CgA-derived peptide (bCGA248–293)]
[6]
  effect on glucose-evoked insulin secretion: able to inhibit the glucose-evoked insulin secretion from pancreatic beta-cells

## rhodamine-labeled CAT: CAT conjugated with 5(6)-carboxytetramethyl rhodamine at the N-terminal extremity ({5(6)‑carboxytetramethylrhodamine}-SSMKLSFRARAYGFRGPGPQL; UniProt P10645 370-390, looked up)
[7]
  detection in PMN cytoplasm (uptake): detected in the cytoplasm

## rhodamine-labeled Hippocampal Cholinergic Neurostimulating Peptide (HCNP): control peptide, rhodamine-labeled Hippocampal Cholinergic Neurostimulating Peptide (HCNP) (rhodamine-PVDLSKWSGPL; reading uncertain; UniProt P30086 2-12, looked up)
[4]; PMNs, data not shown, method and concentration not stated
  Ca2+ influx induced by labelled control peptide: unable to induce Ca^2+ influx into PMNs
[7]
  detection in PMN cytoplasm (uptake): not detected in the cytoplasm

## scrambled CAT: scrambled CAT peptide (SLPRRQLPSSAGMRGGKFAYF)
[8]
  interaction with CaM by SPR: inactive

Reference: publication PMC2639705, “Two Chromogranin A-Derived Peptides Induce Calcium Entry in Human Neutrophils by Calmodulin-Regulated Calcium Independent Phospholipase A2” (PLoS ONE, 2009)
